Here are results for five molecules from patent publication US20070275091A1, “Compositions And Methods For Improved Mucus Function” (priority 2004, published 2007).

Data set [1] concerns mucus from the frog palate. As to conditions: 5 μL of 0.1 M solution applied topically.
Text: From a bullfrog, Rana catesbiana, the upper portion of the head is removed modifying the procedures described in previous works. This is done by pithing the frog after lowering the body temperature to abolish pain sensation, and then cutting with scissors through from the junction of the posterior pharynx and esophagus out to the skin of the back. The palate is checked for macroscopic lesions, such as ulcers, or evidence of inflammation. The palate is then placed inside the frog chamber, a wooden box with a glass top and fitted glass front and manipulated through glove openings, and viewed under a dissecting stereomicroscope provided with a reticulated eyepiece. Humidity inside the box is maintained at 100% using a Pari nebulizer; the box is maintained at room temperature (22° to 24° C.). Before carrying out any measurement, the palate is allowed to stabilize inside the box for 15 minutes.
Samples of mucus and tissue are placed in 2.5% glutaraldehyde solution immediately after collection and stored at 4° C. until processing. Briefly, the samples are post-fixed in 1% osmium tetroxide in Millonig's buffer at room temperature for one hour. They are then washed briefly in a series of ethanol (50-100%), ten minutes at each step, followed by two additional periods of absolute ethanol (10 minutes each). […]
Data set [2] has as its system frog palate mucociliary clearance. The data set is described as follows: Frog palate mucociliary transport, agent applied topically. The arrangement: species or system Rana catesbiana. The protocol:
(§1) The displacement of a 1-5 μL of endogenous frog mucus sample is timed as the trailing edge moves across a predetermined segment. MTV is calculated by dividing the distance traveled by the time elapsed, based on at least five measurements of the time required for the mucus sample to travel the defined distance (3).
In FIG. 4A, the effect of a mucomodulating agent (CaCl2) on mucociliary transport time is shown compared to Frog Ringers (FR) solution. Both solutions (FR and CaCl2) were applied topically to the palate in a volume of 5 μL. Thirty seconds were allowed for dispersion of the agent on the palate, followed by the measurement of mucociliary transport time. A droplet of mucus from the palate was placed on palate toward the mouth opening. Ciliary action transported the droplet down the palate. The measurement process (timing the movement of the droplet down the palate over a set distance of 4 mm as observed through a stereomicroscope with a reticulated eyepiece) was repeated five times and averaged to give a mean transport time for each solution.
As described above, mucomodulator solutions were applied topically to the palate in a volume of 5 μl. After 30 seconds to allow dispersion of the agent on the palate, measurements of mucociliary transport time were taken. None of the agents tested on the frog palate had any significant effect on mucociliary clearance until the highest delivered concentrations. Variations at low concentrations were due to variations in baseline frog palate mucociliary activity.

The nature of data set [3]: Aerosol pattern on bulls-eye target, simulated cough machine. The conditions noted are these: increasing amounts added, 1.5 μL to 150 μL. How it is done:
(§2) Mucus simulants (MS) were exposed to airflow in a simulated cough machine (SCM). The MS ranged from non-viscous, non-elastic substances (water—control) to MS of varying degrees of viscosity and elasticity. Mucin crosslinking was increased by adding sodium tetraborate (mucomodulator B) to viscous solutions of locust bean gum (Sigma). Mucociliary clearance of the MS was assessed on the frog palate (FIG. 5A), elasticity in the Filancemeter (FIG. 6A) and the aerosol pattern in a “bulls-eye” target (FIG. 6B). The sample loaded was weighed before and after each cough maneuver to achieve a measure of expectoration (FIG. 5B).

Data set [4] deals with frog palate epithelial model. Put plainly: Mucociliary clearance of borate-treated mucus simulant on frog palate. The arrangement: species or system Rana catesbiana. As to conditions: control native frog palate mucus 24 mm/min. How it is done: as §1, §2
The nature of data set [5]: Filancemeter spinnability of mucus simulant. The class given is physicochemical. As to conditions: model studies using vegetable polysaccharides. How it is done:
as §2

For data set [6], the system named is tracheal mucociliary clearance. The data set is described as follows: Tracheal mucus velocity in anesthetized dogs. The class given is in vivo. As to conditions: for TMV: 7 mL over 20 min, jet nebulizer; for thread formation capability (a measure of elasticity) of the tracheal mucus: after aerosol exposure, not in sham or saline. How it is done:
The mucomodulator aerosols were delivered to the intubated, spontaneously breathing dogs by jet nebulizer aerosol (7 mL over 20 min). Three aerosol concentrations were delivered: Low=0.001M; Med 0.01M; High=0.1M.
The following was assessed: cardio-respiratory pattern, tracheal mucus clearance, airway patency, and mucus viscoelasticity changes.

Data set [7] in a line: Simulated cough machine, expectoration of mucus simulant. The source says:
The simulated cough machine system comprises the following elements: A 10-L tank with compressed air, which serves as a pressure reservoir that generates airflow, simulating the lungs during a cough maneuver. The pressure generated prior to a normal adult cough is approximately 8 psi pressure. This pressure value was used to simulate the airflow pattern of a human cough for each trial.
The model “trachea” is a 28 cm long rigid acrylic tube with a circular 2.5 cm cross-section. It has an 8 cm removable portion to allow us to measure the weight of the sample of mucus simulant loaded before and immediately after each “cough” maneuver. A solenoid valve located between the pressure reservoir and the model trachea control the gas released from the tank.
An aliquot of sputum or mucus simulant is layered on the bottom of the model trachea and driven forward by the pressurized gas. […] Displacement of the MS sample loaded, expressed in millimeters, is measured from the initial placement to the farthest point with a visible bulk concentration of mucus. […]
Mucus simulants (MS) were exposed to airflow in a simulated cough machine (SCM). […] Mucociliary clearance of the MS was assessed on the frog palate (FIG. 5A), elasticity in the Filancemeter (FIG. 6A) and the aerosol pattern in a “bulls-eye” target (FIG. 6B). […]

Entries after “also recorded” stand apart in the source; their conditions may differ.

`[Ca+2].[Cl-].[Cl-]` [CaCl2, calcium chloride]: the “effect on mucus on the surface of the palate (SE micrograph)” value in data set [1] is recorded as “causes “clumping” of the mucus”. For the same molecule, in data set [2] (5 μL topical, 30 s dispersion, 4 mm distance), the “mucociliary transport time compared to Frog Ringers” value is reported as “no significant effect; also recorded: did not alter the mucus transit time”.

As to `[Na+].[Na+].[O-]B1OB2OB([O-])OB(O1)O2` [XL “B”, sodium tetraborate], in data set [3], the “particles in the aerosolization pattern” value is listed as “reduced to almost disappear”. Further, the “mucociliary transport rate of treated mucus simulants (means)” value in data set [4] is 16-20 mm/min. In addition, in data set [5], the “elasticity relative to viscosity” value is listed as “preferentially raises elasticity relative to viscosity”. In addition, the values for the TMV in data set [6] (High = 0.1M aerosol), in data set [6] (Low = 0.001M aerosol) and in data set [6] (Med = 0.01M aerosol) were 4.3 ± 1.53 mm/min, 3.88 ± 1.66 mm/min and 4.96 ± 1.99 mm/min, respectively. The “thread formation capability (a measure of elasticity) of the tracheal mucus” value in data set [6] is “increase”. The “amount of MS expelled from the SCM” value in data set [7] (1.5 μL added) was 47%; in data set [7] (150 μL added) it was 96%.

Take HMW dextran [XL “D”]: the values for the TMV in data set [6] (High = 0.1M aerosol), in data set [6] (Low = 0.001M aerosol) and in data set [6] (Med = 0.01M aerosol) were 3.85 ± 2.2 mm/min, 4.43 ± 3.83 mm/min and 3.77 ± 1.65 mm/min, respectively. Further, the “thread formation capability (a measure of elasticity) of the tracheal mucus” value in data set [6] was “increase”.

Regarding poly-L-arginine [Mucomodulator A], the mucociliary clearance rate result in data set [2] (5 μl topical, 10^-8 to 10^-1 M, increasing applied concentration) was “significant increase”.

As for polymyxin B [reference compound], the mucociliary clearance entry in data set [2] (5 μl topical, highest concentration) is “sustained decrease”; in data set [2] (5 μl topical, intermediate concentration) it was “increase”.
